In general, melting point refers to the temperature of the solid-liquid transition.

Here are results for ten compounds from patent publication US9040524B2, “Antifungal 5,6-dihydro-4H-pyrrolo[1,2-a][1,4]-benzodiazepines and 6H-pyrrolo[1,2-a][1,4]benzodiazepines substituted with bicycle benzene derivatives” (JANSSEN PHARMACEUTICA NV, priority 2010, dated 2015).

The structures appear in SMILES notation.

The test system of one data set is Microsporum canis. Put plainly: Antifungal activity in vitro, resazurin growth inhibition screen: Microsporum canis. The data set is classed as cell-based. As to conditions: Microsporum canis B68128; read-out: Inf. B pIC50 (converted). The procedure, abridged:
(§1)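 Compounds were serially diluted 2- or 4-fold from DMSO stock with an intermediate water step, tested up to 64 μM final. Each well received 10^3 cfu of cryopreserved fungus in RPMI-MOPS medium. Resazurin served as the growth read-out, with drug-free culture as 100% growth and medium alone as 0%.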
(Alamar Blue is a resazurin reagent that responds to reducing activity.)

Another data set relates to Rhizopus oryzae. Put plainly: Antifungal activity in vitro, resazurin growth inhibition screen: Rhizopus oryzae. The data set is classed as cell-based. The following applies: Rhizopus arrhizus; Rhizopus oryzae IHEM5223; read-out: Inf. J pIC50 (converted). The procedure, abridged:
as §1

For another data set, the system named is Candida parapsilosis. Description: Antifungal activity in vitro, resazurin growth inhibition screen: Candida parapsilosis. It is filed as cell-based. The following applies: Lodderomyces parapsilosis; Candida parapsilosis B66126; read-out: Inf. D pIC50 (converted). The procedure, abridged: as §1
The subject of a further data set is Trichophyton rubrum. Put plainly: Antifungal activity in vitro, resazurin growth inhibition screen: Trichophyton rubrum. The data set is classed as cell-based. As to conditions: Trichophyton rubrum B68183; read-out: Inf. C pIC50 (converted). The procedure, abridged: as §1
In data set [1] the test system is Trichophyton mentagrophytes. Description: Antifungal activity in vitro, resazurin growth inhibition screen: Trichophyton mentagrophytes. It is filed as cell-based. As to conditions: Trichophyton mentagrophytes B70554; read-out: Inf. G pIC50 (converted). The procedure, abridged:
as §1

The next data set relates to Sporothrix schenkii. Put plainly: Antifungal activity in vitro, resazurin growth inhibition screen: Sporothrix schenkii. It is filed as cell-based. As to conditions: Sporothrix schenkii B62482; read-out: Inf. A pIC50 (converted). The procedure, abridged: as §1
In a further data set the test system is Scedosporium apiospermum. Put plainly: Antifungal activity in vitro, resazurin growth inhibition screen: Scedosporium apiospermum. The data set is classed as cell-based. As to conditions: Scedosporium apiospermum IHEM3817; read-out: Inf. H pIC50 (converted). The procedure, abridged:
as §1

For the next data set, the system named is Scedosporium prolificans. Put plainly: Antifungal activity in vitro, resazurin growth inhibition screen: Scedosporium prolificans. The data set is classed as cell-based. As to conditions: Lomentospora prolificans; Scedosporium prolificans IHEM21157; read-out: Inf. I pIC50 (converted). The gist of the method:
as §1

The subject of the next data set is Cryptococcus neoformans. Put plainly: Antifungal activity in vitro, resazurin growth inhibition screen: Cryptococcus neoformans. It is filed as cell-based. As to conditions: Cryptococcus neoformans B66663; read-out: Inf. F pIC50 (converted). The gist of the method:
as §1

The subject of the next data set is Aspergillus fumigatus. Description: Antifungal activity in vitro, resazurin growth inhibition screen: Aspergillus fumigatus. The data set is classed as cell-based. The following applies: Aspergillus fumigatus B42928; read-out: Inf. E pIC50 (converted). The procedure, abridged:
as §1

The test system of another data set is Rhizomucor miehei. Put plainly: Antifungal activity in vitro, resazurin growth inhibition screen: Rhizomucor miehei. It is filed as cell-based. As to conditions: Rhizomucor miehei IHEM13391; read-out: Inf. K pIC50 (converted). The gist of the method: as §1

As to `Clc1cccc2c1CN=C(c1ccc3c(c1)CCO3)c1cccn1-2` [Compound 35, 7-chloro-4-(2,3-dihydro-5-benzofuranyl)-6H-pyrrolo[1,2-a][1,4]benzodiazepine], the melting point lay in the range of 206.4 to 208.9 °C. Also, the IC50 with Microsporum canis is 1000 nM. Also, in the data set with Rhizopus oryzae, the IC50 was more than 64600 nM. The IC50 in the data set on Candida parapsilosis is 2000 nM. Besides, the IC50 with Trichophyton rubrum was 437 nM. Moreover, in data set [1], the IC50 was 794 nM. In the data set with Sporothrix schenkii, the IC50 is 14100 nM. Besides, in the data set on Scedosporium apiospermum, the IC50 is 38900 nM. Besides, the IC50 in the data set on Scedosporium prolificans was 1290 nM. Moreover, the IC50 in the data set with Cryptococcus neoformans is 5010 nM. Moreover, the IC50 in the data set with Aspergillus fumigatus was 2000 nM. For the same compound, in the data set on Rhizomucor miehei, the IC50 is 53700 nM.

With `Clc1cccc2c1CN=C(c1ccc3c(c1)OCC3)c1cccn1-2` [Compound 36, 7-chloro-4-(2,3-dihydro-6-benzofuranyl)-6H-pyrrolo[1,2-a][1,4]benzodiazepine], the melting point was in the range of 180.5 to 181.2 °C. Also, the IC50 in the data set with Microsporum canis was 676 nM. For the same compound, in the data set with Rhizopus oryzae, the IC50 is more than 64600 nM. Besides, the IC50 with Candida parapsilosis is 20900 nM. In addition, the IC50 in the data set on Trichophyton rubrum was 132 nM. In addition, the IC50 in data set [1] was 240 nM. Moreover, the IC50 in the data set with Sporothrix schenkii was 12900 nM. In addition, the IC50 in the data set on Scedosporium apiospermum was 2820 nM. Further, the IC50 in the data set with Scedosporium prolificans was 1200 nM. In addition, the IC50 in the data set on Cryptococcus neoformans was 50100 nM. Moreover, the IC50 with Aspergillus fumigatus was 2000 nM. In the data set with Rhizomucor miehei, the IC50 is more than 64600 nM.

With `Clc1cc(Cl)c2c(c1)-n1cccc1C(c1ccc3c(c1)CCO3)=NC2` [Compound 45, 7,9-dichloro-4-(2,3-dihydro-5-benzofuranyl)-6H-pyrrolo[1,2-a][1,4]benzodiazepine], the melting point was 190 to 191.8 °C. Further, in the data set with Microsporum canis, the IC50 was 257 nM. Besides, the IC50 in the data set with Rhizopus oryzae was more than 64600 nM. The IC50 in the data set on Candida parapsilosis is 7940 nM. Further, in the data set on Trichophyton rubrum, the IC50 is 331 nM. For the same compound, the IC50 in [1] was 331 nM. In the data set with Sporothrix schenkii, the IC50 was 3020 nM. Also, the IC50 in the data set with Scedosporium apiospermum was 32400 nM. Moreover, the IC50 with Scedosporium prolificans was 6170 nM. Moreover, the IC50 in the data set on Cryptococcus neoformans is 1000 nM. Moreover, the IC50 in the data set with Aspergillus fumigatus is 1000 nM. Further, the IC50 with Rhizomucor miehei is more than 64600 nM.

On to `O=C1CCc2cc(C3=NCc4c(Cl)cccc4-n4cccc43)ccc21` [Compound 56, 5-(7-chloro-6H-pyrrolo[1,2-a][1,4]benzodiazepin-4-yl)-2,3-dihydro-1H-inden-1-one], for which the melting point was 226.7 to 227.6 °C. Moreover, in the data set on Microsporum canis, the IC50 is 170 nM. Moreover, the IC50 with Rhizopus oryzae was more than 64600 nM. Further, the IC50 in the data set with Candida parapsilosis is 2880 nM. Moreover, the IC50 with Trichophyton rubrum is 182 nM. For the same compound, the IC50 in data set [1] was 562 nM. Moreover, the IC50 in the data set with Sporothrix schenkii was 2240 nM. In addition, the IC50 in the data set with Scedosporium apiospermum was 447 nM. The IC50 in the data set with Scedosporium prolificans was 110 nM. Besides, the IC50 in the data set on Cryptococcus neoformans was 1320 nM. Further, the IC50 in the data set on Aspergillus fumigatus is 363 nM. Also, the IC50 in the data set with Rhizomucor miehei was 4790 nM.

Turning to `O=C1CCCc2cc(C3=NCc4c(Cl)cccc4-n4cccc43)ccc21` [Compound 58, 6-(7-chloro-6H-pyrrolo[1,2-a][1,4]benzodiazepin-4-yl)-3,4-dihydro-1(2H)-naphthalenone], the melting point lay within 209.8 to 210.7 °C. For the same compound, the IC50 in the data set on Microsporum canis is 166 nM. The IC50 in the data set with Rhizopus oryzae is 49000 nM. Also, in the data set on Candida parapsilosis, the IC50 was more than 64600 nM. Further, in the data set with Trichophyton rubrum, the IC50 was 204 nM. The IC50 in data set [1] was 324 nM. Besides, the IC50 in the data set with Sporothrix schenkii is 2140 nM. For the same compound, in the data set with Scedosporium apiospermum, the IC50 was 5890 nM. Further, in the data set on Scedosporium prolificans, the IC50 is 9330 nM. The IC50 in the data set with Cryptococcus neoformans is 417 nM. Further, the IC50 with Aspergillus fumigatus is 135 nM. Moreover, the IC50 with Rhizomucor miehei is 6920 nM.

`O=C1OCc2ccc(C3=NCc4c(F)cccc4-n4cccc43)cc21` [Compound 63, 6-(7-fluoro-6H-pyrrolo[1,2-a][1,4]benzodiazepin-4-yl)-1(3H)-isobenzofuranone] yielded a melting point of 224.6 to 246 °C. In addition, in the data set with Microsporum canis, the IC50 was 55000 nM. The IC50 in the data set on Rhizopus oryzae is more than 64600 nM. For the same compound, in the data set with Candida parapsilosis, the IC50 is more than 64600 nM. In addition, the IC50 with Trichophyton rubrum was 7410 nM. Further, in data set [1], the IC50 was more than 64600 nM. In the data set with Sporothrix schenkii, the IC50 is more than 64600 nM. The IC50 in the data set on Scedosporium apiospermum was 933 nM. In addition, in the data set on Scedosporium prolificans, the IC50 is 1580 nM. Further, the IC50 with Cryptococcus neoformans is more than 64600 nM. The IC50 in the data set on Aspergillus fumigatus is more than 64600 nM. In the data set with Rhizomucor miehei, the IC50 was more than 64600 nM.

`O=C1OCc2cc(C3=NCc4c(Cl)cccc4-n4cccc43)ccc21` [Compound 65, 5-(7-chloro-6H-pyrrolo[1,2-a][1,4]benzodiazepin-4-yl)-1(3H)-isobenzofuranone] came in with a melting point of 251.2 to 253 °C. For the same compound, the IC50 in the data set on Microsporum canis is 2040 nM. For the same compound, the IC50 with Rhizopus oryzae is more than 64600 nM. Besides, in the data set on Candida parapsilosis, the IC50 is 5130 nM. In the data set with Trichophyton rubrum, the IC50 was 1820 nM. Further, the IC50 in data set [1] was 1910 nM. Besides, the IC50 in the data set with Sporothrix schenkii is 7760 nM. Besides, in the data set with Scedosporium apiospermum, the IC50 was 759 nM. In the data set on Scedosporium prolificans, the IC50 is 589 nM. The IC50 in the data set on Cryptococcus neoformans was 10200 nM. In addition, the IC50 in the data set on Aspergillus fumigatus is 372 nM. Moreover, the IC50 with Rhizomucor miehei is more than 64600 nM.

In turn, `FC1(F)CCc2cc(C3=NCc4c(Cl)cccc4-n4cccc43)ccc2O1` [Compound 69, 7-chloro-4-(2,2-difluoro-3,4-dihydro-2H-1-benzopyran-6-yl)-6H-pyrrolo[1,2-a]-[1,4]benzodiazepine] showed a melting point of 199.7 to 201.2 °C. Besides, the IC50 in the data set on Microsporum canis was 129 nM. In the data set on Rhizopus oryzae, the IC50 is 1200 nM. In addition, the IC50 with Candida parapsilosis was 708 nM. Moreover, the IC50 in the data set with Trichophyton rubrum is 123 nM. The IC50 in data set [1] is 380 nM. In the data set on Sporothrix schenkii, the IC50 was 1050 nM. Further, in the data set with Scedosporium apiospermum, the IC50 is 229 nM. For the same compound, the IC50 with Scedosporium prolificans was 708 nM. In addition, the IC50 with Cryptococcus neoformans is 95.5 nM. For the same compound, the IC50 in the data set with Aspergillus fumigatus was 129 nM. In addition, in the data set on Rhizomucor miehei, the IC50 was 468 nM.

In turn, `Cn1c(=O)oc2ccc(C3=NCc4c(Cl)cccc4-n4cccc43)cc21` [Compound 80, 5-(7-chloro-6H-pyrrolo[1,2-a][1,4]benzodiazepin-4-yl)-3-methyl-2(3H)-benzoxazolone] yielded a melting point of 218.6 to 221 °C. Further, the IC50 with Microsporum canis was 1580 nM. The IC50 in the data set on Rhizopus oryzae is more than 64600 nM. For the same compound, in the data set on Candida parapsilosis, the IC50 is 22400 nM. Besides, the IC50 with Trichophyton rubrum was 1150 nM. In [1], the IC50 was 5370 nM. In the data set with Sporothrix schenkii, the IC50 is 9120 nM. For the same compound, the IC50 in the data set with Scedosporium apiospermum is 56200 nM. For the same compound, the IC50 with Scedosporium prolificans is 22400 nM. Further, the IC50 with Cryptococcus neoformans is more than 64600 nM. For the same compound, the IC50 in the data set with Aspergillus fumigatus was 562 nM. Besides, in the data set with Rhizomucor miehei, the IC50 was more than 64600 nM.

In turn, `Fc1cc(Cl)c2c(c1)-n1cccc1C(c1ccc3c(c1)CCC3(F)F)=NC2` [Compound 88, 7-chloro-4-(1,1-difluoro-2,3-dihydro-1H-inden-5-yl)-9-fluoro-6H-pyrrolo[1,2-a]-[1,4]benzodiazepine] had a melting point of 170.2 to 171.8 °C. In the data set on Microsporum canis, the IC50 is 537 nM. Further, in the data set with Rhizopus oryzae, the IC50 is more than 64600 nM. Further, the IC50 in the data set on Candida parapsilosis was more than 64600 nM. Besides, in the data set with Trichophyton rubrum, the IC50 was 447 nM. For the same compound, in data set [1], the IC50 was 871 nM. For the same compound, in the data set on Sporothrix schenkii, the IC50 is 53700 nM. Besides, the IC50 in the data set on Scedosporium apiospermum was 170 nM. Besides, the IC50 in the data set with Scedosporium prolificans is 2570 nM. Further, in the data set on Cryptococcus neoformans, the IC50 is 407 nM. Also, the IC50 in the data set with Aspergillus fumigatus was 417 nM. Also, in the data set with Rhizomucor miehei, the IC50 was more than 64600 nM.
